The target of this test is T1, canine plasminogen (DPGN) (Canis lupus, UniProt P80009).
T1 construct: gene PLG; intact plasminogen purified from dog blood (samples showing conversion to lys-plasminogen or plasmin discarded)
As to the kind of experiment: titration followed by 4th derivative near-UV absorption spectroscopy (R-values). In kind it is binding.

T1 sequence (P80009 with tags, fused parts or gaps): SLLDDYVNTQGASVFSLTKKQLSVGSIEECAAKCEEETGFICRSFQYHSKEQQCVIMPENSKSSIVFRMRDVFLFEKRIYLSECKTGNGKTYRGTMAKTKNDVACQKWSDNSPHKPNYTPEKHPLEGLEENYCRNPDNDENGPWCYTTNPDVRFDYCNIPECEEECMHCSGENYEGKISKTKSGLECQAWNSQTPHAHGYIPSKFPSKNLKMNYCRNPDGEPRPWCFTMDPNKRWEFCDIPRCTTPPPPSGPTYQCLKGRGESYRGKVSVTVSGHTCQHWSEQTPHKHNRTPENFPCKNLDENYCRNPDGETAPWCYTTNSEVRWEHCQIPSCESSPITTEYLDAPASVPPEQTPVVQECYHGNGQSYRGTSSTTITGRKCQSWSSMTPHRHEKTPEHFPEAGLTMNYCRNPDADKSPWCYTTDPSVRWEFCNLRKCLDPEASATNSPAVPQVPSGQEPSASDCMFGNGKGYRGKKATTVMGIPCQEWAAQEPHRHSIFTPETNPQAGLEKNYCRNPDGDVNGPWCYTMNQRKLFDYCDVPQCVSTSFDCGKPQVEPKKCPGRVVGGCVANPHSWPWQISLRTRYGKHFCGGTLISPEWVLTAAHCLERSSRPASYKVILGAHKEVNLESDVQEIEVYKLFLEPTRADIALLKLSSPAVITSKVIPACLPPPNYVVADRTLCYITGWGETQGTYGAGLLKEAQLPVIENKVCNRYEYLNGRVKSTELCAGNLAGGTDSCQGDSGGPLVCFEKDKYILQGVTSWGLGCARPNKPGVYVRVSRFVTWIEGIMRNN

In the case of `NCCCCCC(=O)O` [6-AH, 6-aminohexanoate], the dissociation constant Kd is around 1000 nM.

For the origin of these results see PMC2716805, “Canine Plasminogen: Spectral Responses to Changes in 6-Aminohexanoate and Temperature” (2007).
